The subject of the first experiment is NCI-H1975. Nature of the experiment: relative viability (nuclei count vs DMSO), 5 days (fraction); higher = more cells survive. As to conditions: first compound 6.325 µM. An outline of the steps:
(§1)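 Dosing by pin tool came one day after lung cancer cell lines were seeded in 1536-well plates, using either one drug or a fixed anchor-drug dose plus five library-drug doses (not always all listed) in √10 steps. After 5 days, nuclei were counted on 4× images. Relative viability is treated-well nuclei count divided by vehicle-well nuclei count, and values are medians of duplicate plates.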
In turn, `COCC1(CO)C(=O)C2CCN1CC2` (stereo not drawn) [PRIMA-1MET] + COc1cccc2cc(-c3nc([C@H]4CC[C@H](C(=O)O)CC4)n4ncnc(N)c34)[nH]c12 [OSI-027] (partner 0.5 µM) yielded a relative viability of 0.777.
Still for that read-out and setting: the same measure for `COCC1(CO)C(=O)C2CCN1CC2` (stereo not drawn) [PRIMA-1MET] + N=C(N)NC(=N)NCCc1ccccc1 [Phenformin] (partner 250 µM): 0.42; for `COCC1(CO)C(=O)C2CCN1CC2` (stereo not drawn) [PRIMA-1MET] + Nc1nc2[nH]cc(CCc3ccc(C(=O)N[C@@H](CCC(=O)O)C(=O)O)cc3)c2c(=O)[nH]1 [Pemetrexed] (partner 0.2 µM): 0.292.
Same read-out and setting: the figure for `COCC1(CO)C(=O)C2CCN1CC2` (stereo not drawn) [PRIMA-1MET] + Cc1nc(Nc2ncc(C(=O)Nc3c(C)cccc3Cl)s2)cc(N2CCN(CCO)CC2)n1 [Dasatinib] (partner 0.075 µM) is 0.375.

Staying with this experiment, now noted: first compound 20 µM.
Consider `COCC1(CO)C(=O)C2CCN1CC2` (stereo not drawn) [PRIMA-1MET] + CCNC(=O)c1noc(-c2cc(C(C)C)c(O)cc2O)c1-c1ccc(CN2CCOCC2)cc1 [Luminespib] (partner 0.01 µM), for which the relative viability was found to be 0.154.
`COCC1(CO)C(=O)C2CCN1CC2` (stereo not drawn) [PRIMA-1MET] + COc1cccc2cc(-c3nc([C@H]4CC[C@H](C(=O)O)CC4)n4ncnc(N)c34)[nH]c12 [OSI-027] (partner 0.5 µM): the relative viability was 0.738.
The compound `COCC1(CO)C(=O)C2CCN1CC2` (stereo not drawn) [PRIMA-1MET] + N=C(N)NC(=N)NCCc1ccccc1 [Phenformin] (partner 250 µM) gave a relative viability of 0.194.
`COCC1(CO)C(=O)C2CCN1CC2` (stereo not drawn) [PRIMA-1MET] + Nc1nc2[nH]cc(CCc3ccc(C(=O)N[C@@H](CCC(=O)O)C(=O)O)cc3)c2c(=O)[nH]1 [Pemetrexed] (partner 0.2 µM) registered a relative viability of 0.282.
Same read-out and setting: the same measure for `COCC1(CO)C(=O)C2CCN1CC2` (stereo not drawn) [PRIMA-1MET] + Cc1nc(Nc2ncc(C(=O)Nc3c(C)cccc3Cl)s2)cc(N2CCN(CCO)CC2)n1 [Dasatinib] (partner 0.075 µM): 0.19.

The test system of another experiment is NCI-H522. The description is as above. As to conditions: first compound 0.2 µM. Put shortly: as §1
The compound `COCC1(CO)C(=O)C2CCN1CC2` (stereo not drawn) [PRIMA-1MET] + CCNC(=O)c1noc(-c2cc(C(C)C)c(O)cc2O)c1-c1ccc(CN2CCOCC2)cc1 [Luminespib] (partner 0.01 µM) yielded a relative viability of 1.09.
In turn, `COCC1(CO)C(=O)C2CCN1CC2` (stereo not drawn) [PRIMA-1MET] + COc1cccc2cc(-c3nc([C@H]4CC[C@H](C(=O)O)CC4)n4ncnc(N)c34)[nH]c12 [OSI-027] (partner 0.5 µM) returned a relative viability of 0.647.
On the same count and under the same terms, the figure for `COCC1(CO)C(=O)C2CCN1CC2` (stereo not drawn) [PRIMA-1MET] + N=C(N)NC(=N)NCCc1ccccc1 [Phenformin] (partner 250 µM) is 0.626; for `COCC1(CO)C(=O)C2CCN1CC2` (stereo not drawn) [PRIMA-1MET] + Nc1nc2[nH]cc(CCc3ccc(C(=O)N[C@@H](CCC(=O)O)C(=O)O)cc3)c2c(=O)[nH]1 [Pemetrexed] (partner 0.2 µM) it is 0.789; for `COCC1(CO)C(=O)C2CCN1CC2` (stereo not drawn) [PRIMA-1MET] + Cc1nc(Nc2ncc(C(=O)Nc3c(C)cccc3Cl)s2)cc(N2CCN(CCO)CC2)n1 [Dasatinib] (partner 0.075 µM) it is 0.797.

The experiment is the same for the next values; noted with them: first compound 0.6325 µM.
Consider `COCC1(CO)C(=O)C2CCN1CC2` (stereo not drawn) [PRIMA-1MET] + CCNC(=O)c1noc(-c2cc(C(C)C)c(O)cc2O)c1-c1ccc(CN2CCOCC2)cc1 [Luminespib] (partner 0.01 µM), for which the relative viability was 0.899.
Regarding `COCC1(CO)C(=O)C2CCN1CC2` (stereo not drawn) [PRIMA-1MET] + COc1cccc2cc(-c3nc([C@H]4CC[C@H](C(=O)O)CC4)n4ncnc(N)c34)[nH]c12 [OSI-027] (partner 0.5 µM), the relative viability was determined as 0.671.
In turn, `COCC1(CO)C(=O)C2CCN1CC2` (stereo not drawn) [PRIMA-1MET] + N=C(N)NC(=N)NCCc1ccccc1 [Phenformin] (partner 250 µM) showed a relative viability of 0.459.
`COCC1(CO)C(=O)C2CCN1CC2` (stereo not drawn) [PRIMA-1MET] + Nc1nc2[nH]cc(CCc3ccc(C(=O)N[C@@H](CCC(=O)O)C(=O)O)cc3)c2c(=O)[nH]1 [Pemetrexed] (partner 0.2 µM) came in with a relative viability of 0.927.
`COCC1(CO)C(=O)C2CCN1CC2` (stereo not drawn) [PRIMA-1MET] + Cc1nc(Nc2ncc(C(=O)Nc3c(C)cccc3Cl)s2)cc(N2CCN(CCO)CC2)n1 [Dasatinib] (partner 0.075 µM) displayed a relative viability of 0.738.

The same experiment, now with this note: first compound 2 µM.
`COCC1(CO)C(=O)C2CCN1CC2` (stereo not drawn) [PRIMA-1MET] + CCNC(=O)c1noc(-c2cc(C(C)C)c(O)cc2O)c1-c1ccc(CN2CCOCC2)cc1 [Luminespib] (partner 0.01 µM) had a relative viability of 1.1.
Take `COCC1(CO)C(=O)C2CCN1CC2` (stereo not drawn) [PRIMA-1MET] + COc1cccc2cc(-c3nc([C@H]4CC[C@H](C(=O)O)CC4)n4ncnc(N)c34)[nH]c12 [OSI-027] (partner 0.5 µM): the relative viability was found to be 0.596.
As for `COCC1(CO)C(=O)C2CCN1CC2` (stereo not drawn) [PRIMA-1MET] + N=C(N)NC(=N)NCCc1ccccc1 [Phenformin] (partner 250 µM), the relative viability stood at 0.534.
`COCC1(CO)C(=O)C2CCN1CC2` (stereo not drawn) [PRIMA-1MET] + Nc1nc2[nH]cc(CCc3ccc(C(=O)N[C@@H](CCC(=O)O)C(=O)O)cc3)c2c(=O)[nH]1 [Pemetrexed] (partner 0.2 µM) yielded a relative viability of 1.01.
The compound `COCC1(CO)C(=O)C2CCN1CC2` (stereo not drawn) [PRIMA-1MET] + Cc1nc(Nc2ncc(C(=O)Nc3c(C)cccc3Cl)s2)cc(N2CCN(CCO)CC2)n1 [Dasatinib] (partner 0.075 µM) returned a relative viability of 0.852.

Still in this experiment, the particulars now being: first compound 6.325 µM.
Consider `COCC1(CO)C(=O)C2CCN1CC2` (stereo not drawn) [PRIMA-1MET] + CCNC(=O)c1noc(-c2cc(C(C)C)c(O)cc2O)c1-c1ccc(CN2CCOCC2)cc1 [Luminespib] (partner 0.01 µM), for which the relative viability was 0.989.
On to `COCC1(CO)C(=O)C2CCN1CC2` (stereo not drawn) [PRIMA-1MET] + COc1cccc2cc(-c3nc([C@H]4CC[C@H](C(=O)O)CC4)n4ncnc(N)c34)[nH]c12 [OSI-027] (partner 0.5 µM), for which the relative viability worked out at 0.836.
The compound `COCC1(CO)C(=O)C2CCN1CC2` (stereo not drawn) [PRIMA-1MET] + N=C(N)NC(=N)NCCc1ccccc1 [Phenformin] (partner 250 µM) gave a relative viability of 0.619.
For the compound `COCC1(CO)C(=O)C2CCN1CC2` (stereo not drawn) [PRIMA-1MET] + Nc1nc2[nH]cc(CCc3ccc(C(=O)N[C@@H](CCC(=O)O)C(=O)O)cc3)c2c(=O)[nH]1 [Pemetrexed] (partner 0.2 µM), the relative viability was found to be 0.946.
In turn, `COCC1(CO)C(=O)C2CCN1CC2` (stereo not drawn) [PRIMA-1MET] + Cc1nc(Nc2ncc(C(=O)Nc3c(C)cccc3Cl)s2)cc(N2CCN(CCO)CC2)n1 [Dasatinib] (partner 0.075 µM) had a relative viability of 0.68.

Staying with this experiment, now noted: first compound 20 µM.
`COCC1(CO)C(=O)C2CCN1CC2` (stereo not drawn) [PRIMA-1MET] + CCNC(=O)c1noc(-c2cc(C(C)C)c(O)cc2O)c1-c1ccc(CN2CCOCC2)cc1 [Luminespib] (partner 0.01 µM) yielded a relative viability of 0.838.
On the same count and under the same terms, the same measure for `COCC1(CO)C(=O)C2CCN1CC2` (stereo not drawn) [PRIMA-1MET] + COc1cccc2cc(-c3nc([C@H]4CC[C@H](C(=O)O)CC4)n4ncnc(N)c34)[nH]c12 [OSI-027] (partner 0.5 µM): 0.13.
Take `COCC1(CO)C(=O)C2CCN1CC2` (stereo not drawn) [PRIMA-1MET] + N=C(N)NC(=N)NCCc1ccccc1 [Phenformin] (partner 250 µM): the relative viability came to 0.142.
`COCC1(CO)C(=O)C2CCN1CC2` (stereo not drawn) [PRIMA-1MET] + Nc1nc2[nH]cc(CCc3ccc(C(=O)N[C@@H](CCC(=O)O)C(=O)O)cc3)c2c(=O)[nH]1 [Pemetrexed] (partner 0.2 µM) yielded a relative viability of 0.423.

The values above are taken from the supplement of paper PMC10307832.
